Source: US11638428B2, “Nematocidal heterocyclic amides” (CORTEVA AGRISCIENCE LLC, priority 2015, dated 2023)

These compounds were tested on cucumber seedlings (assay: Test A: phytotoxicity to the cucumber seedlings of the test units). Conditions: 500 ppm active ingredient applied to soil.
Type: in vivo
Method: Control of the southern root-knot nematode (Meloidogyne incognita) through contact and/or systemic means was evaluated in test units consisting of small open containers filled with a sandy soil mixture and cucumber seedlings. Test compounds were formulated using a solution containing 50% acetone and 50% water. […] Each test was replicated 3 times. After treatment, the test units were allowed to dry for 1 hour, after which time about 400 second-stage juvenile (J2) larvae and 800 eggs were pipetted into the soil. The test units were held at 27° C. and watered as needed for 7 days. Nematocidal efficacy was determined by the amount of root gall formation observed when compared to an untreated control. No gall formation was indicative of 100% nematode control. […] No nematode control rating was given to compounds showing significant phytotoxicity.

Row | Structure (SMILES) | phytotoxicity
1 | Cc1occc1C(=O)NC(C)C1CC1 (stereo not shown) [Compound 6] | no significant phytotoxicity
2 | CC(NC(=O)c1ccoc1Cl)C1CCCC1 (stereo not shown) [Compound 20] | no significant phytotoxicity
3 | CC(NC(=O)c1ncsc1Br)C1CC1 (stereo not shown) [Compound 63] | no significant phytotoxicity
4 | CC(C)C(C)NC(=O)c1ccoc1Cl (stereo not shown) [Compound 26] | no significant phytotoxicity
5 | Cc1occc1C(=O)NC(C)(C)C1CC1 [Compound 7] | no significant phytotoxicity
6 | CC(C)C(C)NC(=O)c1sccc1C(C)(C)C (stereo not shown) [Compound 89] | no significant phytotoxicity
7 | C[C@H](NC(=O)c1ccoc1Cl)C(C)(C)C [Compound 40, 2-chloro-N-[(1S)-1,2,2-trimethylpropyl]-3-furancarboxamide] | no significant phytotoxicity
8 | Cc1ccsc1C(=O)NC(C)C(C)C (stereo not shown) [Compound 48] | no significant phytotoxicity
9 | CC(C)C(C)NC(=O)c1ccoc1Br (stereo not shown) [Compound 33] | no significant phytotoxicity
10 | CC(NC(=O)c1ncsc1I)C1CC1 (stereo not shown) [Compound 56] | no significant phytotoxicity
11 | CCCC(C)NC(=O)c1ccoc1C (stereo not shown) [Compound 5] | no significant phytotoxicity
12 | CSc1ccsc1C(=O)NC(C)C1CC1 (stereo not shown) [Compound 58] | no significant phytotoxicity
13 | CC(NC(=O)c1ccoc1Br)C(C)(C)C (stereo not shown) [Compound 35] | no significant phytotoxicity
14 | CC(NC(=O)c1ccoc1Cl)C1CC1 (racemic) [Compound 11] | no significant phytotoxicity
15 | CC(NC(=O)c1ccoc1Cl)C1CCC1 (stereo not shown) [Compound 23] | no significant phytotoxicity
16 | CC(C)[C@H](C)NC(=O)c1ccoc1Cl [Compound 43] | no significant phytotoxicity
17 | CC(NC(=O)c1ccoc1Cl)C1(C)CC1 (stereo not shown) [Compound 22] | no significant phytotoxicity
18 | Cc1occc1C(=O)N[C@H](C)C(C)C [Compound 96] | no significant phytotoxicity
19 | Cc1occc1C(=O)NC(C1CC1)C1CC1 [Compound 46] | no significant phytotoxicity
20 | CC(NC(=O)c1sccc1Br)C1CC1 (stereo not shown) [Compound 50] | no significant phytotoxicity
21 | Cc1ccsc1C(=O)NC(C1CC1)C1CC1 [Compound 52] | no significant phytotoxicity

Row | Structure (SMILES) | phytotoxicity
22 | CCCC(C)NC(=O)c1ccoc1Cl (stereo not shown) [Compound 17] | no significant phytotoxicity
23 | Cc1occc1C(=O)N[C@H](C)C1CC1 [Compound 36] | no significant phytotoxicity
24 | CCC(C)C(C)NC(=O)c1ccoc1C (stereo not shown) [Compound 1] | no significant phytotoxicity
25 | Cc1occc1C(=O)N[C@@H](C)C(C)C [Compound 101] | no significant phytotoxicity
26 | Cc1occc1C(=O)NC(C)C(C)C (stereo not shown) [Compound 4] | no significant phytotoxicity
27 | Cc1occc1C(=O)N[C@@H](C)C1CC1 [Compound 37] | no significant phytotoxicity
28 | CC(C)[C@@H](C)NC(=O)c1ccoc1Cl [Compound 75] | no significant phytotoxicity
29 | CC(NC(=O)c1sccc1C(C)(C)C)C(C)(C)C (stereo not shown) [Compound 90] | no significant phytotoxicity
30 | CC(C)(C)CC(C)(C)NC(=O)c1ccoc1Cl [Compound 18] | no significant phytotoxicity
31 | CCC(NC(=O)c1ccoc1Cl)C1CC1 (stereo not shown) [Compound 53] | no significant phytotoxicity
32 | CC(NC(=O)c1ccoc1Cl)C(F)(F)F (stereo not shown) [Compound 24] | no significant phytotoxicity
33 | Cc1occc1C(=O)NC(C)C [Compound 3] | no significant phytotoxicity
34 | C[C@@H](NC(=O)c1ccoc1Cl)C1CC1 [Compound 45, 2-chloro-N-[(1R)-1-cyclopropylethyl]-3-furancarboxamide] | no significant phytotoxicity
35 | CC(NC(=O)c1sccc1C(C)(C)C)C(C)(C)C (single isomer, unassigned) [Compound 92] | no significant phytotoxicity
36 | CC(NC(=O)c1sccc1C#N)C(C)(C)C (stereo not shown) [Compound 95] | no significant phytotoxicity
37 | CCCCCC(C)NC(=O)c1ccoc1Cl (stereo not shown) [Compound 29] | no significant phytotoxicity
38 | Cc1occc1C(=O)N[C@H](C)C(C)(C)C [Compound 39] | no significant phytotoxicity
39 | Cc1occc1C(=O)NC(C)CC(C)(C)C (stereo not shown) [Compound 80] | no significant phytotoxicity
40 | CC(NC(=O)c1ccoc1Cl)C(C)(C)C (stereo not shown) [Compound 27, 2-chloro-N-(1,2,2-trimethylpropyl)-3-furancarboxamide] | no significant phytotoxicity
41 | CC(C)CC(C)NC(=O)c1ccoc1Cl (stereo not shown) [Compound 19] | no significant phytotoxicity
42 | CC(NC(=O)c1ccoc1Br)C1CC1 (stereo not shown) [Compound 32] | no significant phytotoxicity

Row | Structure (SMILES) | phytotoxicity
43 | CC(NC(=O)c1ccoc1Cl)C1CCCCC1 (stereo not shown) [Compound 21] | no significant phytotoxicity
44 | COCC(C)(C)NC(=O)c1ccoc1Cl [Compound 12] | no significant phytotoxicity
45 | Cc1occc1C(=O)NC1(C2CC2)CC1 [Compound 47] | no significant phytotoxicity
46 | CC(NC(=O)c1sccc1C(F)(F)F)C1CC1 (stereo not shown) [Compound 65] | no significant phytotoxicity
47 | CC(NC(=O)c1ncsc1Cl)C1CC1 (stereo not shown) [Compound 62] | no significant phytotoxicity
48 | CC(NC(=O)c1ncsc1C(F)(F)F)C1CC1 (stereo not shown) [Compound 72] | no significant phytotoxicity
49 | CC(C)CCCC(C)NC(=O)c1ccoc1Cl (stereo not shown) [Compound 30] | no significant phytotoxicity
50 | CC[C@H](C)NC(=O)c1ccoc1Cl [Compound 77] | no significant phytotoxicity
51 | CCCC(C)NC(=O)c1ccoc1Br (stereo not shown) [Compound 34] | no significant phytotoxicity
52 | Cc1occc1C(=O)N(C)C(C)C1CC1 (stereo not shown) [Compound 2] | no significant phytotoxicity
53 | Cc1ncsc1C(=O)NC(C)C1CC1 (stereo not shown) [Compound 70] | no significant phytotoxicity
54 | CCC(C)NC(=O)c1ccoc1Cl (stereo not shown) [Compound 16] | no significant phytotoxicity
55 | CC(C)(NC(=O)c1ccoc1Cl)C1CC1 [Compound 8] | no significant phytotoxicity
56 | Cc1ncc(C(=O)NC(C)C2CC2)s1 (stereo not shown) [Compound 60] | no significant phytotoxicity
57 | CSCC(C)(C)NC(=O)c1ccoc1Cl [Compound 14] | no significant phytotoxicity
58 | C[C@@H](NC(=O)c1ccoc1Br)C1CC1 [Compound 74] | no significant phytotoxicity
59 | C[C@H](NC(=O)c1ccoc1Br)C(C)(C)C [Compound 42] | no significant phytotoxicity
60 | CC(C)C(C)(C)NC(=O)c1ccoc1Cl [Compound 10] | no significant phytotoxicity
61 | CCC(NC(=O)c1ccoc1C)C1CC1 (stereo not shown) [Compound 67] | no significant phytotoxicity
